# Reference: patent US9155694B2, “Stabilized composition comprising at least one adrenergic compound” (ALK AG, priority 2009, dated 2015)
# Assays:
# [1] = 0.25% di-sodium edetate admixed; 60° C., up to 28 days; at the metabisulfite levels contemplated
# Method: (§1) A 1.1 mg/ml solution of adrenaline (6.004×10^−3 M), in the form of the tartrate, pH 3.4 and containing 0.6% sodium chloride was used. A range of metabisulfite antioxidant concentrations, with and without admixture of 0.25% di-sodium edetate as chelating agent were tested. The metabisulfite/adrenaline molar ratios tested were 0.1, 0.2, 0.5, 1.0 and 1.5, which correspond to sulfite/adrenaline ratios of 0.2, 0.4, 1.0, 2.0 and 3.0, respectively. For the ease of reference to the general description and claims of this specification, the said values correspond to a molar ratio of adrenaline to sulfite of 5.0, 2.5, 1.0, 0.5 and 0.33, respectively.
# The accelerated test temperature was 60° C., protected from light, and samples were pulled at 0, 7, 14, 21 and 28 days. At each pull point, the appearance of the test solution was assessed, the pH measured and the solution assayed for adrenaline content. The appearance of degradation products was noted as area %.
# [adr]^+ relates to samples containing 0.025% di-sodium edetate, whereas [adr] relates to samples containing no chelating agent.
# [2] = auto-oxidation rate increases with pH
# [3] = 1.0 mg/ml adrenaline (tartrate), pH 3.4, 0.6% sodium chloride; 25° C., 13400 lux visible light, 1.50 W·h/m^2 UV, up to 28 days
# Method: (§2) The formulation solutions were prepared at a level of 1.0 mg/ml adrenaline (in the form of the tartrate), pH 3.4 containing 0.6% sodium chloride, with various molar ratios (0.25-0.59) of sodium metabisulfite added. The metabisulfite/adrenaline molar ratios tested were 0.25, 0.34, 0.42, 0.5 and 0.59, which correspond to sulfite/adrenaline ratios of 0.5, 0.68, 0.84, 1.0 and 1.18, respectively. For the ease of reference to the general description and claims of this specification, the said values correspond to a molar ratio of adrenaline to sulfite of 2.0, 1.47, 1.19, 1.0 and 0.85, respectively.
# (§3) Each sample solution was split into two lots. For each sample solution, one lot was placed at the accelerated test temperature of 60° C., protected from light and the other lot placed in a photo-stability cabinet at 25° C. which provided 13400 lux visible light, 1.50 W·h/m^2 UV. Samples were pulled from both conditions at 0, 7, 14 and 28 days At each pull point, the appearance of the test solution was assessed, the pH measured and the adrenaline content measured together with impurities.
# [4] = 60° C., weeks 0-4; FIGS. 8 and 9
# Method: as §1
# The accelerated test temperature was 60° C., protected from light, and samples were pulled at 0, 7, 14, 21 and 28 days. At each pull point, the appearance of the test solution was assessed, the pH measured and the solution assayed for adrenaline content. The appearance of degradation products was noted as area %. […]
# Each sample solution was split into two lots. […] Samples were pulled from both conditions at 0, 7, 14 and 28 days At each pull point, the appearance of the test solution was assessed, the pH measured and the adrenaline content measured together with impurities.
# [5] = Further stability testing, thermal stress at 60° C. protected from light (Example 3); type: physicochemical
# Method: as §2, §3
SMILES,advantage of chelating agent for adrenaline solution stability [1],pH for maximum stability of epinephrine in solution [2],best metabisulfite:adrenaline ratio on the basis of total impurities from photo-stress [3],optimum sulfite:adrenaline ratio [4],"best metabisulfite:adrenaline ratio on the basis of total impurities from heat stress ([5]; 1.0 mg/ml adrenaline (tartrate), pH 3.4, 0.6% sodium chloride, 60° C., up to 28 days)","first choice of metabisulfite content with respect to adrenaline ([5]; considering both stresses (thermal 60° C. and photo-stress), loss of adrenaline, FIGS. 4 and 5)"
O=C([O-])CN(CCN(CC(=O)[O-])CC(=O)O)CC(=O)O.[Na+].[Na+] [di-sodium edetate],no advantage,–,–,–,–,–
"CNC[C@H](O)c1ccc(O)c(O)c1 [epinephrine, (R)-4-(1-hydroxy-2-(methylamino)ethyl)benzene-1,2-diol]",–,about 3.4,0.5,about 1.0,0.42,half molar
